Assays:
Assay in all cases: relative viability (nuclei count vs DMSO), 5 days (fraction); higher = more cells survive
Sulindac + Trametinib = compound: CC1=C(CC(=O)O)c2cc(F)ccc2/C1=C\c1ccc([S+](C)[O-])cc1 [Sulindac] + CC(=O)Nc1cccc(-n2c(=O)n(C3CC3)c(=O)c3c(Nc4ccc(I)cc4F)n(C)c(=O)c(C)c32)c1 [Trametinib] (partner 0.02 µM)
Outline: (§1)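 Lung cancer cell lines were seeded in 1536-well plates and dosed by pin tool the next day, with either a single drug or a fixed anchor-drug dose combined with five library-drug doses (not always all listed) spaced in √10 steps. Five days later, one step fixed the cells and stained their nuclei (final 0.05% Triton X-100, 1% formaldehyde, 1 ug/ml Hoechst), and nuclei were counted on 4× images. Relative viability is the nuclei count in treated wells divided by the count in vehicle wells, and each value is the median of duplicate plates.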

[1] = compound: CN[C@@H]1C[C@H]2O[C@@](C)([C@@H]1OC)n1c3ccccc3c3c4c(c5c6ccccc6n2c5c31)C(=O)NC4 [Staurosporine] + CS(=O)(=O)N1CCN(Cc2cc3nc(-c4cccc5[nH]ncc45)nc(N4CCOCC4)c3s2)CC1 [Pictilisib] (partner 1 µM)
Outline: as §1

Sulindac + Crizotinib = compound: CC1=C(CC(=O)O)c2cc(F)ccc2/C1=C\c1ccc([S+](C)[O-])cc1 [Sulindac] + C[C@@H](Oc1cc(-c2cnn(C3CCNCC3)c2)cnc1N)c1c(Cl)ccc(F)c1Cl [Crizotinib] (partner 1 µM)
Outline: as §1

Staurosporine + Olaparib = compound: CN[C@@H]1C[C@H]2O[C@@](C)([C@@H]1OC)n1c3ccccc3c3c4c(c5c6ccccc6n2c5c31)C(=O)NC4 [Staurosporine] + O=C(c1cc(Cc2n[nH]c(=O)c3ccccc23)ccc1F)N1CCN(C(=O)C2CC2)CC1 [Olaparib] (partner 8 µM)
Outline: as §1

| Cell Line | relative viability (Sulindac + Trametinib; first compound 0.08 µM) | relative viability (Sulindac + Trametinib; first compound 0.253 µM) | relative viability (Sulindac + Trametinib; first compound 2.53 µM) | relative viability (Sulindac + Trametinib; first compound 8 µM) | relative viability ([1]; first compound 0.005 µM) | relative viability ([1]; first compound 0.01581 µM) | relative viability ([1]; first compound 0.05 µM) | relative viability ([1]; first compound 0.1581 µM) | relative viability ([1]; first compound 0.5 µM) | relative viability (Sulindac + Crizotinib; first compound 0.08 µM) | relative viability (Sulindac + Crizotinib; first compound 0.253 µM) | relative viability (Sulindac + Crizotinib; first compound 0.8 µM) | relative viability (Sulindac + Crizotinib; first compound 2.53 µM) | relative viability (Sulindac + Crizotinib; first compound 8 µM) | relative viability (Staurosporine + Olaparib; first compound 0.005 µM) | relative viability (Staurosporine + Olaparib; first compound 0.05 µM) | relative viability (Staurosporine + Olaparib; first compound 0.1581 µM) | relative viability (Staurosporine + Olaparib; first compound 0.5 µM) | relative viability (Sulindac + Trametinib; first compound 0.8 µM) | relative viability (Staurosporine + Olaparib; first compound 0.01581 µM) |
| --- | --- | --- | --- | --- | --- | --- | --- | --- | --- | --- | --- | --- | --- | --- | --- | --- | --- | --- | --- | --- |
| HCC-366 | 0.359 | 0.384 | 0.357 | 0.396 | 0.106 | 0.0757 | 0.0691 | 0.0727 | 0.0401 | 0.378 | 0.599 | 0.446 | 0.497 | 0.729 | 0.247 | 0.12 | 0.0287 | 0.0185 | – | – |
| NCI-H2087 | 0.217 | 0.205 | 0.207 | 0.224 | 0.833 | 0.435 | 0.313 | 0.165 | 0.138 | 1.08 | 0.882 | 0.739 | 1.03 | 0.85 | 0.48 | 0.217 | 0.0849 | 0.0689 | 0.158 | 0.414 |
| RERF-LC-KJ | 0.99 | 0.928 | 0.877 | 0.933 | 0.565 | 0.308 | 0.284 | 0.151 | 0.141 | 0.816 | 0.903 | 0.853 | 0.891 | 0.914 | 0.726 | 0.304 | 0.228 | 0.188 | 0.778 | 0.537 |
| HOP-62 | 0.411 | 0.404 | 0.411 | 0.388 | 0.182 | 0.0895 | 0.0986 | 0.0751 | 0.0641 | 1.06 | 1.25 | 1.06 | 0.843 | 0.987 | 0.441 | 0.0992 | 0.143 | 0.104 | 0.34 | 0.157 |
| NCI-H2126 | 0.674 | 0.568 | 0.51 | 0.619 | 0.496 | 0.309 | 0.342 | 0.278 | 0.286 | 1.13 | 1.01 | 1.03 | 1.04 | 1.11 | 0.89 | 0.62 | 0.468 | 0.4 | 0.553 | 0.634 |
| SW 1573 | 0.601 | 0.645 | 0.371 | 0.75 | 0.275 | 0.18 | 0.123 | 0.0832 | 0.0842 | 0.825 | 0.742 | 0.766 | 0.869 | 0.867 | 0.189 | 0.121 | 0.0899 | 0.063 | 0.496 | 0.124 |
| SK-LU-1 | 0.657 | 0.486 | 0.398 | 0.529 | 0.412 | 0.187 | 0.145 | 0.137 | 0.124 | 0.844 | 1.22 | 0.781 | 0.975 | 1.26 | 0.337 | 0.156 | 0.128 | 0.13 | 0.435 | 0.172 |

From the supplement of paper PMC10307832
